This is an account of results in paper PMC5218480 (PLoS ONE, 2017).

This assay relates to MV-4-11 cells. Nature of the assay: Gene expression microarray analysis (Affymetrix PrimeView) and GSEA. The class given is cell-based, human. Further details: RFU PODN (11730768_x_at) / Fold change /veh PODN (11730768_x_at) / RFU LINC00158 (11744669_a_at) / Fold change /veh LINC00158 (11744669_a_at) / RFU DUSP10 (11751237_a_at) / Fold change /veh DUSP10 (11751237_a_at) / RFU ID3 (11757404_x_at) / Fold change /veh ID3 (11757404_x_at) / RFU PLEKHG5 (11737974_s_at) / Fold change /veh PLEKHG5 (11737974_s_at) / RFU LRRC4B (11730491_at) / Fold change /veh LRRC4B (11730491_at) / RFU GIMAP4 (11747438_a_at) / Fold change /veh GIMAP4 (11747438_a_at) / RFU KRT8 (11758183_x_at) / Fold change /veh KRT8 (11758183_x_at) / RFU CNN1 (11734310_a_at) / Fold change /veh CNN1 (11734310_a_at) / RFU VPS37D (11726825_at) / Fold change /veh VPS37D (11726825_at) / RFU C10orf10 (11716522_x_at) / Fold change /veh C10orf10 (11716522_x_at) / RFU KIR2DL2 /// KIR2DL4 /// KIR2DL5A /// KIR2DL5B /// KIR2DS1 /// KIR2DS2 /// KIR2DS3 /// KIR2DS4 /// KIR3DL3 /// KIR3DL3 /// KIR3DS1 (11738374_at) / Fold change /veh KIR2DL2 /// KIR2DL4 /// KIR2DL5A /// KIR2DL5B /// KIR2DS1 /// KIR2DS2 /// KIR2DS3 /// KIR2DS4 /// KIR3DL3 /// KIR3DL3 /// KIR3DS1 (11738374_at) / RFU C1QL1 (11718748_at) / Fold change /veh C1QL1 (11718748_at) / RFU TMPRSS4 (11747572_a_at) / Fold change /veh TMPRSS4 (11747572_a_at) / RFU HAMP (11756126_x_at) / Fold change /veh HAMP (11756126_x_at) / RFU RNFT2 (11725882_a_at) / Fold change /veh RNFT2 (11725882_a_at) / RFU NR4A2 (11747474_a_at) / Fold change /veh NR4A2 (11747474_a_at) / RFU ABCC12 (11746883_a_at) / Fold change /veh ABCC12 (11746883_a_at) / RFU TMEM136 (11760407_x_at) / Fold change /veh TMEM136 (11760407_x_at) / RFU CLDN22 /// WWC2 (11732394_at) / Fold change /veh CLDN22 /// WWC2 (11732394_at) / RFU HLA-DPB1 (11760878_x_at) / Fold change /veh HLA-DPB1 (11760878_x_at) / RFU SPINT1 (11716480_a_at) / Fold change /veh SPINT1 (11716480_a_at) / RFU GAP43 (11754022_s_at) / Fold change /veh GAP43 (11754022_s_at) / RFU A4GNT (11735810_at) / Fold change /veh A4GNT (11735810_at) / RFU PRB3 (11715151_x_at) / Fold change /veh PRB3 (11715151_x_at) / RFU TUBB4B (11761932_at) / Fold change /veh TUBB4B (11761932_at) / RFU CAPN14 (11732068_a_at) / Fold change /veh CAPN14 (11732068_a_at) / RFU TMCC2 (11721928_a_at) / Fold change /veh TMCC2 (11721928_a_at) / RFU IRGQ (11745062_a_at) / Fold change /veh IRGQ (11745062_a_at) / RFU FAM174B (11720279_a_at) / Fold change /veh FAM174B (11720279_a_at) / RFU TMPRSS4 (11748680_a_at) / Fold change /veh TMPRSS4 (11748680_a_at) / RFU FAM212B (11763350_a_at) / Fold change /veh FAM212B (11763350_a_at) / RFU PLEKHG5 (11743358_a_at) / Fold change /veh PLEKHG5 (11743358_a_at) / RFU ZSCAN30 (11745921_a_at) / Fold change /veh ZSCAN30 (11745921_a_at) / RFU CMKLR1 (11741424_a_at) / Fold change /veh CMKLR1 (11741424_a_at) / RFU LOC101060620 /// MAPK8IP1 (11723275_at) / Fold change /veh LOC101060620 /// MAPK8IP1 (11723275_at) / RFU SPTSSB (11747773_x_at) / Fold change /veh SPTSSB (11747773_x_at) / RFU PRSS12 (11739890_at) / Fold change /veh PRSS12 (11739890_at) / RFU BIN1 (11741810_x_at) / Fold change /veh BIN1 (11741810_x_at) / RFU WNT11 (11732464_a_at) / Fold change /veh WNT11 (11732464_a_at) / RFU C10orf10 (11716521_a_at) / Fold change /veh C10orf10 (11716521_a_at) / RFU C5orf56 (11738089_at) / Fold change /veh C5orf56 (11738089_at) / RFU CYB561 (11721691_x_at) / Fold change /veh CYB561 (11721691_x_at) / RFU ANKRD19P (11752326_a_at) / Fold change /veh ANKRD19P (11752326_a_at) / RFU OR2T12 /// OR2T33 /// OR2T8 (11738714_s_at) / Fold change /veh OR2T12 /// OR2T33 /// OR2T8 (11738714_s_at) / RFU VCAN (11748164_a_at) / Fold change /veh VCAN (11748164_a_at) / RFU JSRP1 (11732532_at) / Fold change /veh JSRP1 (11732532_at) / RFU KRTAP10-11 (11738290_x_at) / Fold change /veh KRTAP10-11 (11738290_x_at) / RFU MYO3A (11730013_a_at) / Fold change /veh MYO3A (11730013_a_at) / RFU EBF3 (11725865_a_at) / Fold change /veh EBF3 (11725865_a_at) / RFU CAMK2N1 (11719241_x_at) / Fold change /veh CAMK2N1 (11719241_x_at) / RFU C5orf56 (11738088_a_at) / Fold change /veh C5orf56 (11738088_a_at) / RFU OLFML3 (11715873_a_at) / Fold change /veh OLFML3 (11715873_a_at) / RFU LOC100653217 /// NTM (11731650_a_at) / Fold change /veh LOC100653217 /// NTM (11731650_a_at) / RFU MAPK11 (11762145_a_at) / Fold change /veh MAPK11 (11762145_a_at) / RFU FIZ1 (11724087_x_at) / Fold change /veh FIZ1 (11724087_x_at) / RFU OASL (11726364_x_at) / Fold change /veh OASL (11726364_x_at) / RFU SOX15 (11748057_x_at) / Fold change /veh SOX15 (11748057_x_at) / RFU CD79A (11719716_a_at) / Fold change /veh CD79A (11719716_a_at) / RFU HIST1H1D (11736915_at) / Fold change /veh HIST1H1D (11736915_at) / RFU CASKIN2 (11723855_a_at) / Fold change /veh CASKIN2 (11723855_a_at) / RFU LOC730098 (11760151_x_at) / Fold change /veh LOC730098 (11760151_x_at) / RFU OR4N2 (11742367_at) / Fold change /veh OR4N2 (11742367_at) / RFU PRRT2 (11749266_a_at) / Fold change /veh PRRT2 (11749266_a_at) / RFU SNX32 (11753110_a_at) / Fold change /veh SNX32 (11753110_a_at) / RFU CDHR5 (11726645_a_at) / Fold change /veh CDHR5 (11726645_a_at) / RFU RCAN1 (11760418_a_at) / Fold change /veh RCAN1 (11760418_a_at) / RFU FAM167A (11723789_a_at) / Fold change /veh FAM167A (11723789_a_at) / RFU FAM26E (11764081_at) / Fold change /veh FAM26E (11764081_at) / RFU ISYNA1 (11749810_s_at) / Fold change /veh ISYNA1 (11749810_s_at) / RFU ACY1 (11761880_at) / Fold change /veh ACY1 (11761880_at) / RFU 11764098_at / Fold change /veh 11764098_at / RFU SAMD14 (11745864_x_at) / Fold change /veh SAMD14 (11745864_x_at) / RFU NPB (11741838_a_at) / Fold change /veh NPB (11741838_a_at) / RFU TMPRSS6 (11731388_a_at) / Fold change /veh TMPRSS6 (11731388_a_at) / RFU KRTAP10-2 (11738614_at) / Fold change /veh KRTAP10-2 (11738614_at) / RFU ARHGAP8 /// PRR5-ARHGAP8 (11727945_x_at) / Fold change /veh ARHGAP8 /// PRR5-ARHGAP8 (11727945_x_at) / RFU KRTAP5-7 /// NADSYN1 (11734609_at) / Fold change /veh KRTAP5-7 /// NADSYN1 (11734609_at) / RFU RASL12 (11751679_a_at) / Fold change /veh RASL12 (11751679_a_at) / RFU CDKN2B (11736163_a_at) / Fold change /veh CDKN2B (11736163_a_at) / RFU PRF1 (11729649_at) / Fold change /veh PRF1 (11729649_at) / RFU, ZNF638 /// ZNF638-IT1 / Fold change vs veh, ZNF638 /// ZNF638-IT1 / RFU, PANK3 / Fold change vs veh, PANK3 / RFU, SH3YL1 / Fold change vs veh, SH3YL1 / RFU, ZEB2 / Fold change vs veh, ZEB2 / RFU, NRIP1 / Fold change vs veh, NRIP1 / RFU, PTTG1IP / Fold change vs veh, PTTG1IP / RFU, CAPN2 / Fold change vs veh, CAPN2 / RFU, MED14 / Fold change vs veh, MED14 / RFU, SNORA58 / Fold change vs veh, SNORA58 / RFU, C1orf63 / Fold change vs veh, C1orf63 / RFU, LRRFIP1 / Fold change vs veh, LRRFIP1 / RFU, NDUFAF7 / Fold change vs veh, NDUFAF7 / RFU, SLC12A2 / Fold change vs veh, SLC12A2 / RFU, IBTK / Fold change vs veh, IBTK / RFU, ESF1 / Fold change vs veh, ESF1 / Fold change vs veh, TMEM50B / RFU, TAOK1 / Fold change vs veh, TAOK1 / RFU, ACBD3 / Fold change vs veh, ACBD3 / RFU, TMA16 / Fold change vs veh, TMA16 / RFU, RWDD3 / Fold change vs veh, RWDD3 / RFU, BCAT1 / Fold change vs veh, BCAT1 / RFU, EDEM3 / Fold change vs veh, EDEM3 / RFU, TMEM33 / Fold change vs veh, TMEM33 / RFU, WDR75 / Fold change vs veh, WDR75 / RFU, AHCTF1 / Fold change vs veh, AHCTF1 / RFU, TFRC / Fold change vs veh, TFRC / RFU, ZDHHC17 / Fold change vs veh, ZDHHC17 / RFU, NOM1 / Fold change vs veh, NOM1 / RFU, ARL8B / Fold change vs veh, ARL8B / RFU, ZBTB11 / Fold change vs veh, ZBTB11 / RFU, TAMM41 / Fold change vs veh, TAMM41 / RFU, KIAA1704 /// LOC100996395 / Fold change vs veh, KIAA1704 /// LOC100996395 / RFU, ING1 / Fold change vs veh, ING1 / RFU, TRMT61B / Fold change vs veh, TRMT61B / RFU, FUBP3 / Fold change vs veh, FUBP3 / RFU, TP53 / Fold change vs veh, TP53 / RFU, TNKS2 / Fold change vs veh, TNKS2 / RFU, ZFP14 / Fold change vs veh, ZFP14 / RFU, ACTR2 / Fold change vs veh, ACTR2 / RFU, PPP3R1 / Fold change vs veh, PPP3R1 / RFU, PIK3R1 / Fold change vs veh, PIK3R1 / RFU, HNRNPA1 / Fold change vs veh, HNRNPA1 / RFU, RNF170 / Fold change vs veh, RNF170 / RFU, ZNF28 / Fold change vs veh, ZNF28 / RFU, RNGTT / Fold change vs veh, RNGTT / RFU, OGT / Fold change vs veh, OGT / RFU, BRD1 / Fold change vs veh, BRD1 / RFU, MARS / Fold change vs veh, MARS / RFU, ZNF655 / Fold change vs veh, ZNF655 / RFU, FAHD1 / Fold change vs veh, FAHD1 / RFU, BDP1 / Fold change vs veh, BDP1 / RFU, LRRCC1 / Fold change vs veh, LRRCC1 / RFU, ARID1A / Fold change vs veh, ARID1A / RFU, ZNF146 / Fold change vs veh, ZNF146 / RFU, ZNF330 / Fold change vs veh, ZNF330 / RFU, GPN3 / Fold change vs veh, GPN3 / RFU, C9orf123 / Fold change vs veh, C9orf123 / RFU, N4BP2L2 / Fold change vs veh, N4BP2L2 / RFU, ARFIP1 / Fold change vs veh, ARFIP1 / RFU, FAM179B / Fold change vs veh, FAM179B / RFU, BCL10 / Fold change vs veh, BCL10 / RFU, UHRF1BP1L / Fold change vs veh, UHRF1BP1L / RFU, BET1 / Fold change vs veh, BET1 / RFU, CNOT2 / Fold change vs veh, CNOT2 / RFU, ZNF268 / Fold change vs veh, ZNF268 / Fold change vs veh, ZNF507 / RFU, DGCR2 / Fold change vs veh, DGCR2 / RFU, WDSUB1 / Fold change vs veh, WDSUB1 / Fold change vs veh, HSP90B1 /// MIR3652 / RFU, ADSS / Fold change vs veh, ADSS / RFU, GK / Fold change vs veh, GK / RFU, ZNF148 / Fold change vs veh, ZNF148 / RFU, TAF9 / Fold change vs veh, TAF9 / RFU, SLC1A5 / Fold change vs veh, SLC1A5 / RFU, SLMO2 / Fold change vs veh, SLMO2 / RFU, ABCC4 / Fold change vs veh, ABCC4 / RFU, LOC101060439 /// RAP1B / Fold change vs veh, LOC101060439 /// RAP1B / RFU, RFX7 / Fold change vs veh, RFX7 / RFU, GTPBP10 / Fold change vs veh, GTPBP10 / RFU, CNEP1R1 / Fold change vs veh, CNEP1R1 / RFU, BIVM-ERCC5 /// ERCC5 / Fold change vs veh, BIVM-ERCC5 /// ERCC5 / RFU, ILF3 / Fold change vs veh, ILF3 / RFU 11762660_at / Fold change /veh 11762660_at / RFU VCAN (11757783_s_at) / Fold change /veh VCAN (11757783_s_at) / RFU DDX43 (11728927_at) / Fold change /veh DDX43 (11728927_at) / RFU KRT8 (11758188_x_at) / Fold change /veh KRT8 (11758188_x_at) / RFU NKD1 (11759106_at) / Fold change /veh NKD1 (11759106_at) / RFU SRD5A1 (11742802_a_at) / Fold change /veh SRD5A1 (11742802_a_at) / RFU TPSAB1 /// TPSB2 (11721975_s_at) / Fold change /veh TPSAB1 /// TPSB2 (11721975_s_at) / RFU GSTM3 (11746129_a_at) / Fold change /veh GSTM3 (11746129_a_at) / RFU IL23R (11737362_x_at) / Fold change /veh IL23R (11737362_x_at) / RFU TMEM51 (11727254_a_at) / Fold change /veh TMEM51 (11727254_a_at) / RFU PIWIL2 (11732686_x_at) / Fold change /veh PIWIL2 (11732686_x_at) / RFU ORM1 (11744905_x_at) / Fold change /veh ORM1 (11744905_x_at) / RFU CCDC152 (11743942_at) / Fold change /veh CCDC152 (11743942_at) / RFU ECM1 (11717891_a_at) / Fold change /veh ECM1 (11717891_a_at) / RFU IL23R (11748794_a_at) / Fold change /veh IL23R (11748794_a_at) / RFU TNFAIP8L3 (11732012_x_at) / Fold change /veh TNFAIP8L3 (11732012_x_at) / RFU MBOAT4 (11741988_at) / Fold change /veh MBOAT4 (11741988_at) / RFU 11764193_at / Fold change /veh 11764193_at / RFU TMEM53 (11763286_at) / Fold change /veh TMEM53 (11763286_at) / RFU MAGEB2 (11727129_at) / Fold change /veh MAGEB2 (11727129_at) / RFU TMEM200A (11744735_a_at) / Fold change /veh TMEM200A (11744735_a_at) / RFU CCDC152 (11751479_a_at) / Fold change /veh CCDC152 (11751479_a_at) / RFU FAM211A (11726209_a_at) / Fold change /veh FAM211A (11726209_a_at) / RFU RGS16 (11746705_a_at) / Fold change /veh RGS16 (11746705_a_at) / RFU VCAN (11755009_s_at) / Fold change /veh VCAN (11755009_s_at) / RFU RHOB (11743442_s_at) / Fold change /veh RHOB (11743442_s_at) / RFU RGS16 (11720943_a_at) / Fold change /veh RGS16 (11720943_a_at) / RFU RGS16 (11720944_at) / Fold change /veh RGS16 (11720944_at) / RFU, VPS4B / Fold change vs veh, VPS4B / RFU, CREB1 / Fold change vs veh, CREB1 / RFU, DNAJC13 / Fold change vs veh, DNAJC13 / RFU, GNAQ / Fold change vs veh, GNAQ / RFU, CDK5R1 / Fold change vs veh, CDK5R1 / RFU, ZRANB3 / Fold change vs veh, ZRANB3 / RFU, CUL4A / Fold change vs veh, CUL4A / RFU, CCNY / Fold change vs veh, CCNY / RFU, UFL1 / Fold change vs veh, UFL1 / RFU, COG3 / Fold change vs veh, COG3 / RFU, DIAPH2 / Fold change vs veh, DIAPH2 / RFU, SKA2 / Fold change vs veh, SKA2 / RFU, AFF3 / Fold change vs veh, AFF3 / RFU, LMF1 / Fold change vs veh, LMF1 / RFU, IPO11 / Fold change vs veh, IPO11 / RFU, DFFB / Fold change vs veh, DFFB / RFU, FOXP1 / Fold change vs veh, FOXP1 / RFU, CARD8 / Fold change vs veh, CARD8 / RFU, STRN3 / Fold change vs veh, STRN3 / RFU, ADK / Fold change vs veh, ADK / RFU, RASSF2 / Fold change vs veh, RASSF2 / RFU, WIPF1 / Fold change vs veh, WIPF1 / RFU, LARP1B / Fold change vs veh, LARP1B / RFU, RASA1 / Fold change vs veh, RASA1 / RFU, RB1 / Fold change vs veh, RB1 / RFU, PPFIA1 / Fold change vs veh, PPFIA1 / RFU, MAT2A / Fold change vs veh, MAT2A / RFU, CCT5 / Fold change vs veh, CCT5 / RFU, WDR92 / Fold change vs veh, WDR92 / RFU, CUX1 / Fold change vs veh, CUX1 / RFU, TTC7A / Fold change vs veh, TTC7A / RFU, TMEM135 / Fold change vs veh, TMEM135 / RFU, DEPTOR / Fold change vs veh, DEPTOR / RFU, CPM / Fold change vs veh, CPM / RFU, DNAJB6 / Fold change vs veh, DNAJB6 / RFU, CACNA2D3 / Fold change vs veh, CACNA2D3 / RFU, DTX4 / Fold change vs veh, DTX4 / RFU, TFCP2 / Fold change vs veh, TFCP2 / RFU, GMCL1 /// GMCL1P1 / Fold change vs veh, GMCL1 /// GMCL1P1 / RFU, AEBP2 / Fold change vs veh, AEBP2 / RFU, SNHG1 /// SNORD22 /// SNORD25 /// SNORD26 /// SNORD27 /// SNORD28 /// SNORD29 /// SNORD31 / Fold change vs veh, SNHG1 /// SNORD22 /// SNORD25 /// SNORD26 /// SNORD27 /// SNORD28 /// SNORD29 /// SNORD31 / Fold change (Aza/veh), C12orf56 (ProbeSet 11735607_a_at) / Fold change (ACY-1035/veh), C12orf56 (ProbeSet 11735607_a_at) / Fold change (Aza/veh), FGFR1OP (ProbeSet 11751329_s_at) / Fold change (ACY-1035/veh), FGFR1OP (ProbeSet 11751329_s_at) / Fold change (Aza/veh), VPS36 (ProbeSet 11739960_a_at) / Fold change (ACY-1035/veh), VPS36 (ProbeSet 11739960_a_at) / RFU SYPL1 (11715823_x_at) / Fold change /veh SYPL1 (11715823_x_at) / RFU IGFBP7 (11715501_s_at) / Fold change /veh IGFBP7 (11715501_s_at) / RFU REEP3 (11722064_at) / Fold change /veh REEP3 (11722064_at) / RFU IGLL1 (11728026_x_at) / Fold change /veh IGLL1 (11728026_x_at): dose or concentration left out as unconfirmed. The conditions noted are these: ProbeSet 11732165_x_at; LIST D.

`Nc1ncn([C@@H]2O[C@H](CO)[C@@H](O)[C@H]2O)c(=O)n1` [azacitidine]: the “Fold change vs veh, LMF1” value amounted to 0.71.
